How the values were obtained:
Magnaporthe grisea = type: in vivo; settings: rice (Nihonbare), flowable formulation 500 ppm foliage application; five days after the inoculation
Plasmopara viticola = assay: Treating grape downy mildew, foliage application; type: in vivo; settings: grape (Berry-A), infected nursery plants, flowable formulation 500 ppm foliage application after inoculation (curative)
Method: Test Regarding Effects of Treating Grape Downy Mildew (Plasmopara viticola)
A plastic pot was filled with sandy soil, and grape (variety: Berry-A) was then disseminated. The grape plants were allowed to grow in a green house for 40 days. A water suspension of zoosporangium of Plasmopara viticola was inoculated to the aforementioned pot by spaying it. Thereafter, the grape plants were left at 23° C. at a high humidity for 1 day, and they were then air-dried, so as to obtain grape downy mildew-infected nursery plants. The aforementioned flowable formulation comprising compound 189 was set at a predetermine concentration (500 ppm) by diluting with water, and it was then subjected to foliage application such that it could be sufficiently attached to the leaves of the aforementioned nursery grape plants. After completion of the foliage application, the plants were subjected to air-drying, and they were then left at 23° C. in a green house for 5 days. Thereafter, the plants were further left at 23° C. at a high humidity for 1 day. Thereafter, the infected areas thereof were examined.

Row | SMILES | infected areas of treated plants relative to infected areas of untreated plants (Magnaporthe grisea) [%] | infected areas of treated plants relative to infected areas of untreated plants (Plasmopara viticola) [%]
1 | O=C(NCc1ccc(OC(F)F)cc1)c1ccc2ncccc2c1 [Compound 56] | ≤ 30 | 
2 | Cc1ccc(CNC(=O)c2ccc3ncsc3c2)cc1 [Compound 189] |  | ≤ 10

From patent US20100041694A1, “AGRICULTURAL COMPOSITION FOR CONTROLLING OR PREVENTING PLANT DISEASES CAUSED BY PLANT PATHOGENIC MICROBES” (Sumitomo Chemical Company, Limited, priority 2007, published 2010)
